Measurements taken from patent publication US7118899B2, “Detection of transmembrane potentials by optical methods” (The Regents of the University of California, priority 2001, dated 2006).

What was measured:
[1] = system: targeted GFP expressing cells; test: Temporal response of the GFP/oxonol FRET change; type: cell-based; settings: oxonol acceptors; identical to displacement current time constants
Excerpt: The temporal response of the GFP/oxonol FRET change is dependent on the oxonol translocation rate and follows the previously observed trend with oxonol acceptors, faster responses with more hydrophobic acceptors. The measured time constants for the ethyl and butyl oxonol acceptors are ˜50 and ˜5 ms respectively in the targeted GFP expressing cells. The FRET response and the electrophysiologically measured displacement currents have identical time constants. The measured response times are 2–4 fold faster than previously reported and may be a property of the cells used or from a slight difference in temperature.

astrocytoma cells = test: Pentamethine oxonol translocation, displacement currents in voltage-clamped astrocytoma cells; type: cell-based; settings: for displacement current time constant: voltage steps of +20–120 mV; for translocation time constant (crosses the membrane): pentamethine oxonols, DiSBA-C6-(5) value at 20
Excerpt: The membrane translocation rates for the pentamethines are 5–8 times faster than the trimethine analogues. […] The trimethine analogue translocates […] under identical conditions. The displacement currents of DiSBAC6(5) decay very rapidly and are difficult to separate from the cell capacitance. As a result of the large voltage-dependent signal from the Cou-PE/DiSBAC6(5) pair, it was possible to optically measure the speed of voltage response of DiSBAC6(5). The time constant for DiSBAC6(5) translocation was measured optically at 0.383±0.032 ms in response to a 100 mV depolarization step, using FRET from asymmetrically labeled Cou-PE. The enhanced translocation rates result from the greater charge delocalization and slightly more hydrophobicity of the pentamethine oxonols. The rapid voltage response of DiSBAC6(5) is the fastest known for a permeant, highly fluorescent molecule. The submillisecond response is fast enough to accurately register action potentials of single neurons.

L-M(TK^−) cells [2] = test: Oxonol displacement currents (membrane translocation), whole-cell voltage clamp; type: cell-based; settings: for translocation time constant: voltage clamped mammalian cells
Protocol: (§1) All cells were grown and handled like L-M(TK^−) except where noted. L-M(TK^−) cells were grown in Dulbecco's Modified Eagle Media (Gibco; Grand Island, N.Y.) with 10% fetal bovine serum (FBS) and 1% penicillin streptomycin (PS) (Gemini; Calabasas, Calif.). B104 cells were differentiated with 1 μM retinoic acid for 5 days prior to use. The cells were plated on glass coverslips at least one day before use. The adherent cells were washed and maintained in 2.5–3.0 mL of HBSS with 1 g/L glucose and 20 mM HEPES at pH 7.4. A freshly prepared 75 μM aqueous solution of the appropriate oxonol was made prior to an experiment from a DMSO stock solution. The cells were stained by mixing 100 μL of the oxonol solution with 750 μL of the bath and then adding the diluted solution to the cells. The dye was left for 30–40 minutes at a bath concentration of […]. 1.5 mM β-cyclodextrin in the bath solution was necessary for cell loading of DiSBA-C6-(3). The butyl and ethyl derivatives were water-soluble enough to load cells with out β-cyclodextrin complexation. DiSBA-C10-(3) was loaded in a pH 7.4 solution containing 290 mM sucrose and 10 mM HEPES, 364 mOsm, for 10 min at a bath concentration of […]. DiSBA-C10-(3) labeling was quenched by replacing the bath with HBSS solution. The cells were stained with 15 µg/mL of FL-WGA for 15 minutes. The B104 cells required a 125 µg/mL bath concentration to give satisfactory lectin staining. The excess dyes were removed with repeated washes with HBSS. If the excess ethyl or butyl oxonol derivatives were left in the bath, slow currents and fluorescence changes due to redistribution of the dyes into the cell were observed during depolarizations greater than 1 s. The cardiac myocytes [Henderson, S. A., Spencer, M., Sen, A., Kumar, C., Siddiqui, M. A. Q., and Chien, K. R. 1989. Structure organization, and expression of the rat cardiac myosin light chain-2 gene. J. Biol. Chem. 264:18142–18146] were a gift of Professor Kenneth Chien, UCSD. The Jurkat lymphocyte suspensions were grown in RPMI media with 5% heat inactivated FBS and 1% PS. 15–20 mL aliquots of the cellular suspension were washed three times before and after dye staining by centrifugation at 100×g for 4 minutes followed by additions of fresh HBSS.
Patch clamp recording were made using an Axopatch 1-D amplifier equipped with a CV-4 headstage from Axon Instruments (Foster City, Calif.). The data were digitized and stored using the PCLAMP software. The pH 7.4 intracellular solution used contained 125 mM potassium gluconate, 1 mM CaCl2.2H2O, 2 mM MgCl2.6H2O, 11 mM EGTA, and 10 mM HEPES. For the B104 cells, 4 mM ATP and 0.5 mM GTP were added.
The translocation rates were studied in L-M(TK^−) cells using whole-cell voltage clamp recording. The L-M(TK^−) cells were chosen because they have very low background currents and are easy to patch clamp. These cells have a resting potential of −5 mV and no evident voltage activated currents.
12.5 ms long voltage steps at 15 mV increments were applied to the cell, from a holding potential of −70 mV. The larger, faster transients due to simple membrane capacitance transient could be minimized using the capacitance and series resistance compensation capabilities of the Axopatch amplifier, allowing the displacement currents to be clearly observed. The currents are due to redistribution of the membrane-bound oxonol in response to 8 depolarizations. The time constant for the displacement current is 2 ms for 120 mV depolarization. Equal amounts of charge move at the onset and conclusion of the voltage step, but in opposite directions, consistent with redistribution of stored ions from one energy minimum to the other across the plasma membrane. Furthermore, the induced capacitance dq/dV from the oxonol movement is calculated to be ˜5 pF for 100 mV depolarization. This value corresponds to roughly one third the membrane capacitance without the dye. […] The optimum density of sodium channels in an unmyelinated nerve. Philos. Trans. R. Soc. […]

Jurkat cell suspensions = test: Quenching of FL-WGA fluorescence by oxonol titration in cell suspensions; type: cell-based; settings: cells labeled with FL-WGA
Protocol: (§2) All cells were grown and handled like L-M(TK^−) except where noted. L-M(TK^−) cells were grown in Dulbecco's Modified Eagle Media (Gibco; Grand Island, N.Y.) with 10% fetal bovine serum (FBS) and 1% penicillin streptomycin (PS) (Gemini; Calabasas, Calif.). B104 cells were differentiated with 1 μM retinoic acid for 5 days prior to use. The cells were plated on glass coverslips at least one day before use. The adherent cells were washed and maintained in 2.5–3.0 mL of HBSS with 1 g/L glucose and 20 mM HEPES at pH 7.4. A freshly prepared 75 μM aqueous solution of the appropriate oxonol was made prior to an experiment from a DMSO stock solution. […] If the excess ethyl or butyl oxonol derivatives were left in the bath, slow currents and fluorescence changes due to redistribution of the dyes into the cell were observed during depolarizations greater than 1 s. […]
To transduce charge displacements into optical signals, the oxonol fluorescences at the intracellular and extracellular membrane binding sites is made different. Fluorescence asymmetry is created with the introduction of fluorescently labeled lectins bound to the extracellular membrane surface. […] The extinction coefficient and the fluorescence quantum yield of FL-WGA were measured to be 222,000 M^−1cm^−1 (˜3 fluorescein/protein) and 0.23, respectively. […]

L-M(TK^−) cells [3] = test: Voltage-sensitive FRET fluorescence changes in voltage clamped L-M(TK^−) cells; type: cell-based
Protocol: as §1, with “The excess dyes were removed with repeated washes with HBSS.” left out, “The cardiac myocytes [Henderson, S. A., Spencer, M., Sen, A., Kumar, C., Siddiqui, M. A. Q., and Chien, K. R. 1989. Structure organization, and expression of the rat cardiac myosin light chain-2 gene. J. Biol. Chem. 264:18142–18146] were a gift of Professor Kenneth Chien, UCSD. The Jurkat lymphocyte suspensions were grown in RPMI media with 5% heat inactivated FBS and 1% PS. 15–20 mL aliquots of the cellular suspension were washed three times before and after dye staining by centrifugation at 100×g for 4 minutes followed by additions of fresh HBSS.” left out
(§3) The fluorescently labeled cells were excited with light from a 75 W xenon lamp passed through 450–490 nm excitation interference filters. […] The long wavelength Texas Red fluorescence was passed through a 605 nm DF55 bandpass filter. Voltage dependent fluorescence changes in single cells were measured using a Nikon microscope attached to a Photoscan II photometer equipped with two R928 PMTs for dual emission recordings. […]

B104 neuroblastoma cells = test: Voltage-sensitive FRET in differentiated B104 neuroblastoma cells; type: cell-based; settings: oxonol as FRET donor to Cy5 labeled PE
Protocol: as §2, §3

1321N astrocytoma cells = test: Voltage-sensitive FRET fluorescence changes in voltage clamped astrocytoma cells; type: cell-based; settings: 100 mV depolarization step, FRET from asymmetrically labeled Cou-PE
Protocol: as §2, §3

neuroblastoma = settings: cited from earlier work
[4] = voltage-clamped fibroblasts, 100 mV depolarization at 20 C

CCCCN1C(=O)C(=CC=Cc2c(O)n(CCCC)c(=S)n(CCCC)c2=O)C(=O)N(CCCC)C1=S [DiSBA-C4-(3), Bis-(1,3-dibutyl-2-thiobarbiturate)-trimethineoxonol]
time constant of the FRET response [1]: ~5 ms | displacement current time constant (astrocytoma cells): ~18 ms | displacement current time constant (L-M(TK^−) cells [2]; 20 C): ~18 ms | lectin fluorescence intensity quenched (Jurkat cell suspensions): up to 30% | activation energy of translocation (L-M(TK^−) cells [3]; from time constants at 20 C and 29 C): ~17 kcal/mol

CCCCN1C(=O)C(=CC=CC=Cc2c(O)n(CCCC)c(=S)n(CCCC)c2=O)C(=O)N(CCCC)C1=S [DiSBA-C4-(5)]
translocation rate relative to the trimethine oxonol analogues (astrocytoma cells): six times faster than the corresponding trimethine oxonol | translocation time constant (crosses the membrane) (astrocytoma cells): < 3 ms | displacement current time constant (astrocytoma cells): ~2 ms

CCCCCCN1C(=O)C(=CC=Cc2c(O)n(CCCCCC)c(=S)n(CCCCCC)c2=O)C(=O)N(CCCCCC)C1=S [DiSBA-C6-(3), (1,3-dihexyl-2-thiobarbiturate)trimethine oxonol]
ratio changes (B104 neuroblastoma cells): 5–15 %/100 mV | time constant for the displacement current (L-M(TK^−) cells [2]; 120 mV depolarization, holding potential −70 mV, 20 C): 2 ms | max, time constant for translocation at V=Vh (L-M(TK^−) cells [2]; fit to Eq. 2, FIG. 5, Vh=−5 mV and β=0.42): 2.9 ms | translocation time constant (L-M(TK^−) cells [2]): < 3 ms | displacement current time constant (L-M(TK^−) cells [2]; [4]): about 2 ms | response time (in words) (L-M(TK^−) cells [3]; oxonol as FRET donor to TR-WGA): same response time as FL-WGA/DiSBA-C6-(3) | signal change (in words) (L-M(TK^−) cells [3]; oxonol as FRET donor to TR-WGA): only one half that for FL-WGA/DiSBA-C6-(3)

CCCCCCN1C(=O)C(=CC=CC=Cc2c(O)n(CCCCCC)c(=S)n(CCCCCC)c2=O)C(=O)N(CCCCCC)C1=S [DiSBA-C6-(5), Bis-(1,3-dihexyl-2-thiobarbiturate)-pentamethineoxonol]
response time (astrocytoma cells): less than 1 ms | translocation time constant (crosses the membrane) (astrocytoma cells): ~0.4 ms | time constant for translocation, measured optically (1321N astrocytoma cells): 0.383 ± 0.032 ms

CCCCCCCCCCN1C(=O)C(=CC=Cc2c(O)n(CCCCCCCCCC)c(=S)n(CCCCCCCCCC)c2=O)C(=O)N(CCCCCCCCCC)C1=S [DiSBA-C10-(3)]
displacement currents (in words) (L-M(TK^−) cells [2]; compared with DiSBA-C6-(3), 20 C): approximately the same speed | translocation time constant (L-M(TK^−) cells [2]): < 2 ms | displacement current time constant (L-M(TK^−) cells [2]; [4]): about 2 ms

CCCCCN(CCCCC)c1ccc(/C=C/C=C/c2cc[n+](CCCCS(=O)(=O)[O-])cc2)cc1 [RH-421]
fluorescence change (neuroblastoma): 21 % /100 mV
